Each block holds one compound with its values, some of them ahead of it.
How the values were obtained:
HDAC (HeLa cell extract) = assay: Primary assay: deacetylase activity, HeLa cell extract as source of HDAC; assay type: biochemical, human
Excerpt: Briefly, this assay relies on the release of radioactive acetate from a radioactively labelled histone fragment by the action of HDAC enzyme. Test compounds, which inhibit HDAC, reduce the yield of radioactive acetate. Signal (e.g., scintillation counts) measured in the presence and absence of a test compound provide an indication of that compound's ability to inhibit HDAC activity. Decreased activity indicates increased inhibition by the test compound.
The histone fragment was an N-terminal sequence from histone H4, and it was labelled with radioactively labelled acetyl groups using tritiated acetylcoenzyme A (coA) in conjunction with an enzyme which is the histone acetyltransferase domain of the transcriptional coactivator p300. 0.33 mg of peptide H4 (the N-terminal 20 amino acids of histone H4, synthesized using conventional methods) were incubated with His6-tagged p300 histone acetyltransferase domain (amino acids 1195-1673, expressed in E coli strain BLR(DE3)pLysS (Novagen, Cat. No. 69451-3) and 3H-acetyl coA (10 μL of 3.95 Ci/mmol; from Amersham) in a total volume of 300 μL of HAT buffer (50 mM TrisCl pH 8, 5% glycerol, 50 mM KCl, 0.1 mM ethylenediaminetetraacetic acid (EDTA), 1 mM dithiothreitol (DTT) and 1 mM 4-(2-aminoethyl)-benzenesulfonylfluoride (AEBSF)). The mixture was incubated at 30° C. for 45 min after which the His-p300 was removed using nickel-trinitriloacetic acid agarose (Qiagen, Cat No. 30210). The acetylated peptide was then separated from free acetyl coA by size exclusion chromatography on Sephadex G-15 (Sigma G-15-120), using distilled H2O as the mobile phase.
After purification of the radiolabelled histone fragment, it was incubated with a source of HDAC (e.g., an extract of HeLa cells (a rich source of HDAC), recombinantly produced HDAC1 or HDAC2) and any released acetate was extracted into an organic phase and quantitatively determined using scintillation counting. By including a test compound with the source of HDAC, that compound's ability to inhibit the HDAC was determined.
Two cell volumes of extraction buffer were used, and particulate material was centrifuged out (20800 g, 4° C., 10 min). The supernatant extract having deacetylase activity was aliquotted and frozen for storage.
A source of HDAC (e.g., 2 μL of crude HeLa extract, 5 μL of HDAC1 or HDAC2; in elution buffer, as above) was incubated with 3 μL of radioactively labelled peptide along with appropriate dilutions of candidate compounds (1.5 μL) in a total volume of 150 μL of buffer (20 mM Tris pH 7.4, 10% glycerol). The reaction was carried out at 37° C. for one hour, after which the reaction was stopped by adding 20 μL of 1 M HCl/0.4 M sodium acetate. Then, 750 μL of ethyl acetate was added, the samples vortexed and, after centrifugation (14000 rpm, 5 min), 600 μL from the upper phase were transferred to a vial containing 3 mL of scintillation liquid (UltimaGold, Packard, Cat. No. 6013329). Radioactivity was measured using a Tri-Carb 2100TR Liquid Scintillation Analyzer (Packard).
Percent activity (% activity) for each test compound was calculated as: % activity={(S^C−B)/(S^o−B)}×100 wherein S^c denotes signal measured in the presence of enzyme and the compound being tested, S^o denotes signal measured in the presence of enzyme but in the absence of the compound being tested, and B denotes the background signal measured in the absence of both enzyme and compound being tested.

HeLa cells = assay: Secondary assay: cell proliferation WST-1, HeLa; assay type: cell-based; conditions: Homo sapiens, 48 h, read-out: Cell Proliferation Inhibition WST-1 IC50, HeLa
Protocol: (§1) Compounds with HDAC inhibition activity, as determined using the primary assay, were subsequently evaluated using secondary cell-based assays. The following cell lines were used:
(§2) Cells were plated in 96-well plates at 3-10×10^3 cells/well in 100 μL of culture medium. The following day, different concentrations of candidate compounds were added and the cells incubated at 37° C. for 48 h. Subsequently, 10 μL/well of WST-1 reagent was added and the cells reincubated for 1 hour. After the incubation time, absorbance was measured.
(§3) WST-1 is a tetrazolium salt which is cleaved to formazan dye by cellular enzymes. […] The formazan dye produced is quantified by a scanning multiwell spectrophotometer by measuring the absorbance of the dye solution at 450 nm wavelength (reference wavelength 690 nm).
(§4) Percent activity (% activity) in reducing the number of viable cells was calculated for each test compound as: % activity={(S^C−B)/(S^o−B)}×100 wherein S^C denotes signal measured in the presence of the compound being tested, S^o denotes signal measured in the absence of the compound being tested, and B denotes the background signal measured in blank wells containing medium only. […] IC50 values were calculated using the software package Prism 3.0 (GraphPad Software Inc., San Diego, Calif.), setting top value at 100 and bottom value at 0.

[1] = test system: K11 HPV E7 transformed human keratinocyte line; assay: Secondary assay: cell proliferation WST-1, K11; assay type: cell-based; conditions: K11, 48 h, read-out: Cell Proliferation Inhibition WST-1 IC50, K11
Protocol: as §1
K11—HPV E7 transformed human keratinocyte line provided by Pidder Jansen-Duerr, Institut für Biomedizinische Alternsforschung, Innsbruck, Austria.
as §2
as §3, with “enzymes. An expansion in the number of viable cells results in an increase in the overall activity of mitochondrial dehydrogenases in the sample.” for “enzymes.”
IC50 values were calculated using the software package Prism 3.0 (GraphPad Software Inc., San Diego, Calif.), setting top value at 100 and bottom value at 0.

JURKAT human T-cell line = assay: Secondary assay: cell proliferation WST-1, Jurkat; assay type: cell-based; conditions: 48 h, read-out: Cell Proliferation Inhibition WST-1 IC50, Jurkat
Protocol: as §1
JURKAT—Human T-cell line (ATCC no. TIB-152).
as §2, §3, §4

SMILES: CC(C)c1ccc(NC(=O)COCC(=O)NO)cc1 [Compound 1]
HDAC Inhibition, HeLa (percent activity) (HDAC (HeLa cell extract); @ 1.0 μM): 16% @ 1.0 μM

SMILES: CN(C)c1ccc(NC(=O)CSCC(=O)NO)cc1 [Compound 2]
HDAC Inhibition, HeLa (percent activity) (HDAC (HeLa cell extract); @ 500 nM): 26% @ 500 nM

SMILES: CN(C)c1ccc(NC(=O)COCC(=O)NO)cc1 [Compound 4]
HDAC Inhibition, HeLa (percent activity) (HDAC (HeLa cell extract); @ 1.0 μM): 0% @ 1 μM

IC50 (HeLa cells): 87 µM
SMILES: O=C(/C=C/C=C/c1ccccc1)NCCSCCC(=O)NO [Compound 5, (2E)(4E)-5-Phenylpenta-2,4-dienoic acid [2-(2-hydroxycarbamoylethylsulfanyl)ethyl]amide]
HDAC Inhibition, HeLa (percent activity) (HDAC (HeLa cell extract); @ 500 nM): 74% @ 500 nM

SMILES: O=C(CCSCCNC(=O)c1ccc2ccccc2c1)NO [Compound 6, E-Naphthalene-2-carboxylic acid [2-(2-hydroxycarbamoylethylsulfanyl)ethyl]amide]
HDAC Inhibition, HeLa (percent activity) (HDAC (HeLa cell extract); @ 500 nM): 43% @ 500 nM

SMILES: O=C(/C=C/C=C/c1ccccc1)NCCCOc1ccc(CC(=O)NO)cc1 [Compound 7, (2E,4E)-N-(3-{4-[2-(Hydroxyamino)-2-oxoethyl]phenoxy}propyl)-5-phenyl-2,4-pentadienamide]
HDAC Inhibition, HeLa (percent activity) (HDAC (HeLa cell extract); @ 500 nM): 7% @ 500 nM

SMILES: O=C(/C=C/c1ccccc1)Nc1cccc(OCC(=O)NO)c1 [Compound 8, (E)-N-{3-[2-(Hydroxyamino)-2-oxoethoxy]phenyl}-3-phenyl-2-propenamide]
IC50 (HDAC (HeLa cell extract); unit inferred, read-out: HDAC Inhibition IC50, HeLa): 0.75 µM
IC50 (HeLa cells): 25 µM
IC50 [1]: 1.05 µM
IC50 (JURKAT human T-cell line): 12.7 µM

SMILES: O=C(/C=C/C#Cc1cccc(NS(=O)(=O)c2ccccc2)c1)NO [Oxamflatin, (2E)-5-[3-[(phenylsulfonyl)amino]phenyl]-pent-2-en-4-ynohydroxamic acid, reference compound]
IC50 [1]: 4.82 µM
IC50 (JURKAT human T-cell line): 0.17 µM

From patent US6960685B2 (TopoTarget UK Limited, priority 2000, dated 2005)
